One data set has as its system Nematode eggs. The data set is described as follows: Plant pathogenic nematode inhibition test by dipping: nematode egg hatch inhibition (NY/T 1154.5-2006). The class given is in vivo. On the procedure: A plant pathogenic nematode inhibition test is conducted by dipping with the compounds in Table 1; and by referring to NY/T 1154.5-2006 (Part 5: Dipping Test for Insecticide Ovicidal Activity), the nematode egg hatch inhibition activity of the compounds is tested, as shown in Table 2: […]

The next data set has as its system Nematode J2. The data set is described as follows: Plant pathogenic nematode inhibition test by dipping: second-stage juveniles. The data set is classed as in vivo.
Another data set concerns Earthworm. The data set is described as follows: Earthworm toxicity test (Test Guidelines on Environmental Safety Assessment for Chemical Pesticides). The class given is in vivo. The conditions noted are these: cell adds 'low toxicity'. On the procedure: (§1) According to the earthworm and edaphon toxicity test procedures as prescribed in the Test Guidelines on Environmental Safety Assessment for Chemical Pesticides, earthworm and edaphon toxicity tests are conducted on compounds 1 to 60 from Table 1. The simulative usual dose of pesticide in the edaphon test is 40 ppm.

A further data set concerns Edaphon. The experiment in a line: Edaphon toxicity test (Test Guidelines on Environmental Safety Assessment for Chemical Pesticides). As to conditions: 15 d; 100 times of usual dose (simulative usual dose 40 ppm); cell adds 'low toxicity'. On the procedure: as §1
Setting [1] is: Test object: nematode eggs, dipping.
Setting [2] is: Test object: nematode J2 (second-stage juveniles), dipping.

Consider twelve compounds from patent US10111428B2, “Nematocide containing lactonic ring and preparation method and application thereof” (priority 2015, dated 2018).

Values after ≈ are worked out from the molar mass of the structure shown.

On to `CCc1ccc(C2OC(=O)CC2C(=O)OCCC=C(F)F)cc1` (stereo not drawn) [Compound 4], for which the results for the LC50 in the data set with Nematode eggs (in vivo) and with Nematode J2 (in vivo) were 10.25 µg/mL (≈ 31.6 µM) and 10.24 µg/mL (≈ 31.6 µM), respectively. Also, the “Earthworm Toxicity LC50 (14 d)” value with Earthworm was >10, low toxicity mg/L. In addition, the “Edaphon Toxicity (15 d) (Inhibition ratio when added amount is 100 times of usual dose)” value with Edaphon is <50%, low toxicity.

Consider `O=C1CC(C(=O)OCCC(F)=C(F)F)C(c2ccc(Br)cc2F)O1` (stereo not drawn) [Compound 25], for which the LC50 – broadly, the concentration lethal to half of the exposed cells or organisms – worked out at 13.91 µg/mL (≈ 33.8 µM) in the data set on Nematode eggs (setting [1]) and 15.74 µg/mL (≈ 38.3 µM) in the data set with Nematode J2 (setting [2]). In addition, the “Earthworm Toxicity LC50 (14 d)” value in the data set on Earthworm is >10, low toxicity mg/L. In addition, the “Edaphon Toxicity (15 d) (Inhibition ratio when added amount is 100 times of usual dose)” value with Edaphon is <50%, low toxicity.

Consider `O=C1CC(C(=O)OCCC(F)=C(F)F)C(c2cc(F)cc(Br)c2)O1` (stereo not drawn) [Compound 22], for which the LC50 came to 9.57 µg/mL (≈ 23.3 µM) with Nematode eggs (in vivo) and 10.85 µg/mL (≈ 26.4 µM) in the data set on Nematode J2 (in vivo). In the data set on Earthworm, the “Earthworm Toxicity LC50 (14 d)” value is recorded as >10, low toxicity mg/L. The “Edaphon Toxicity (15 d) (Inhibition ratio when added amount is 100 times of usual dose)” value in the data set with Edaphon is reported as <50%, low toxicity.

As to `O=C1CC(C(=O)OCCC(F)=C(F)F)C(c2ccc(Oc3ccc(F)cc3)cc2)O1` (stereo not drawn) [Compound 55], the LC50 amounted to 13.24 µg/mL (≈ 31.2 µM) with Nematode eggs (in vivo) and 15.36 µg/mL (≈ 36.2 µM) in the data set with Nematode J2 (in vivo). Further, in the data set on Earthworm, the “Earthworm Toxicity LC50 (14 d)” value was >10, low toxicity mg/L. Moreover, the “Edaphon Toxicity (15 d) (Inhibition ratio when added amount is 100 times of usual dose)” value in the data set on Edaphon was <50%, low toxicity.

As to `O=C1CC(C(=O)OCCC(F)=C(F)F)C(c2cc(Br)cc(Br)c2)O1` (stereo not drawn) [Compound 18], the LC50 was found to be 10.23 µg/mL (≈ 21.7 µM) in the data set on Nematode eggs (in vivo) and 12.47 µg/mL (≈ 26.4 µM) in the data set with Nematode J2 (in vivo). Besides, the “Earthworm Toxicity LC50 (14 d)” value in the data set with Earthworm is >10, low toxicity mg/L. Also, the “Edaphon Toxicity (15 d) (Inhibition ratio when added amount is 100 times of usual dose)” value in the data set with Edaphon is reported as <50%, low toxicity.

In the case of `Cc1ccccc1C1OC(=O)CC1C(=O)OCCC=C(F)F` (stereo not drawn) [Compound 2], the LC50 in the data set with Nematode eggs (in vivo) worked out at 9.81 µg/mL (≈ 31.6 µM); in the data set on Nematode J2 (in vivo), 10.14 µg/mL (≈ 32.7 µM). Besides, the “Earthworm Toxicity LC50 (14 d)” value in the data set with Earthworm was >10, low toxicity mg/L. For the same compound, the “Edaphon Toxicity (15 d) (Inhibition ratio when added amount is 100 times of usual dose)” value in the data set on Edaphon is recorded as <50%, low toxicity.

For the compound `O=C1CC(C(=O)OCCC=C(F)F)C(c2ccccc2C(F)(F)F)O1` (stereo not drawn) [Compound 45], the LC50 in the data set on Nematode eggs (in vivo) amounted to 10.14 µg/mL (≈ 27.8 µM); with Nematode J2 (in vivo) it was 12.35 µg/mL (≈ 33.9 µM). Moreover, in the data set with Earthworm, the “Earthworm Toxicity LC50 (14 d)” value was >10, low toxicity mg/L. In addition, in the data set with Edaphon, the “Edaphon Toxicity (15 d) (Inhibition ratio when added amount is 100 times of usual dose)” value is recorded as <50%, low toxicity.

Consider `O=C1CC(C(=O)OCCC(F)=C(F)F)C(c2ccccc2OC(F)(F)F)O1` (stereo not drawn) [Compound 41], for which the LC50 turned out to be 11.41 µg/mL (≈ 28.6 µM) with Nematode eggs (in vivo) and 13.86 µg/mL (≈ 34.8 µM) in the data set on Nematode J2 (in vivo). The “Earthworm Toxicity LC50 (14 d)” value with Earthworm is on record as >10, low toxicity mg/L. Further, the “Edaphon Toxicity (15 d) (Inhibition ratio when added amount is 100 times of usual dose)” value with Edaphon is <50%, low toxicity.

Regarding `O=C1CC(C(=O)OCCC=C(F)F)C(c2ccccc2)O1` (stereo not drawn) [Compound 1], the figures for the LC50 in the data set with Nematode eggs (in vivo) and in the data set on Nematode J2 (in vivo) were 11.81 µg/mL (≈ 39.9 µM) and 12.24 µg/mL (≈ 41.3 µM), respectively. In the data set with Earthworm, the “Earthworm Toxicity LC50 (14 d)” value is >10, low toxicity mg/L. In addition, in the data set on Edaphon, the “Edaphon Toxicity (15 d) (Inhibition ratio when added amount is 100 times of usual dose)” value was <50%, low toxicity.

Take `O=C1CC(C(=O)OCCC(F)=C(F)F)C(c2ccc(OCc3ccc(F)cc3)cc2)O1` (stereo not drawn) [Compound 56]: the LC50 in the data set on Nematode eggs (in vivo) turned out to be 11.56 µg/mL (≈ 26.4 µM); in the data set on Nematode J2 (in vivo) it was 13.47 µg/mL (≈ 30.7 µM). Besides, the “Earthworm Toxicity LC50 (14 d)” value with Earthworm is given as >10, low toxicity mg/L. In addition, the “Edaphon Toxicity (15 d) (Inhibition ratio when added amount is 100 times of usual dose)” value in the data set on Edaphon is on record as <50%, low toxicity.

As for `Nc1ccc(C2OC(=O)CC2C(=O)OCCC(F)=C(F)F)cc1` (stereo not drawn) [Compound 60], the LC50 in the data set with Nematode eggs (in vivo) was determined as 8.40 µg/mL (≈ 25.5 µM); in the data set with Nematode J2 (in vivo) it was 10.06 µg/mL (≈ 30.6 µM). Also, the “Earthworm Toxicity LC50 (14 d)” value in the data set on Earthworm is given as >10, low toxicity mg/L. Moreover, the “Edaphon Toxicity (15 d) (Inhibition ratio when added amount is 100 times of usual dose)” value in the data set with Edaphon is <50%, low toxicity.

For `O=C1CC(C(=O)OCCC(F)=C(F)F)C(c2cc(F)cc(Cl)c2)O1` (stereo not drawn) [Compound 24], the values for the LC50 with Nematode eggs (setting [1]) and with Nematode J2 (setting [2]) were 10.91 µg/mL (≈ 29.8 µM) and 12.24 µg/mL (≈ 33.4 µM), respectively. Moreover, the “Earthworm Toxicity LC50 (14 d)” value in the data set on Earthworm is given as >10, low toxicity mg/L. The “Edaphon Toxicity (15 d) (Inhibition ratio when added amount is 100 times of usual dose)” value with Edaphon was <50%, low toxicity.
